Measured values as given in patent publication US11059844B2, “Immune stimulating macrolides” (ISR IMMUNE SYSTEM REGULATION HOLDING AB (PUBL), priority 2017, dated 2021).

How the values were obtained:
Lactobacillus casei = test: Minimum Inhibitory Concentration (MIC) assay; format: cell-based; details: Lacticaseibacillus casei; anaerobic, 37° C., 18 h
Protocol: (§1) The bioactivity of macrolide compounds against 4 strains of common gut bacteria (Escherichia coli, Streptococcus salivarius subsp. salivarius, Lactobacillus casei and Bifidobacterium longum subsp. infantis) and common mammalian skin isolate Micrococcus luteus, was assessed using the Minimum Inhibitory Concentration (MIC) assay. Bacterial strains were purchased from DSMZ (Brunswick, Germany) except M. luteus which was obtained from NCIMB, and stored in 20% glycerol at −80° C. Stock solutions (100% DMSO) of positive controls (azithromycin and erythromycin), and of test compounds 1 and 2 were diluted in broth to working stock concentrations of 256 μg/ml (final assay testing concentration range 128 μg/ml to 0.00391 μg/ml). Stock solutions of all other compounds were diluted in broth to working stock concentrations of 128 μg/ml (final assay testing concentration range 64 μg/ml to 0.00195 μg/ml). Bacterial strains were cultivated in appropriate broth in an anaerobic chamber at 37° C., except for M. luteus which was incubated aerobically at 37° C. 18 h cultures were diluted in broth to an OD595 of 0.1 and then further diluted 1:10. In 96-well plates, in duplicate, 200 μl working stock of test compound was transferred to well 1 and serially diluted (1:2) in broth. 100 μl bacterial suspension was aliquoted into each well and mixed thoroughly. Appropriate sterility controls were included and plates were incubated in an anaerobic chamber, or aerobically (M. luteus) at 37° C. for 18 h. The MIC was determined to be the concentration of test compound in the first well with no visible growth.

CD25+ cells = test: CD25 expression in blood of mice after i.v. dosing; format: in vivo, C57bl/6 mice; details: highest dose of 5 mg/kg, 24 h
Protocol: FIG. 14: % CD25high cells in blood of C57bl/6 mice injected 24 h previously with indicated dose of compound 1. CD25 expression was measured by flow cytometry.
Study 13: Compound 1 was administered i.v. to C57bl/6 mice at 0.165 mg/kg to 5 mg/kg. CD25+ cell abundance was increased in animals receiving the highest dose of 5 mg/kg (FIG. 14), as was body weight in the same group (not shown).

PBMCs [1] = test: Cytokine/chemokine secretion from PBMCs (cytometric bead assay); format: cell-based, Human; details: 2 days
Protocol: (§2) FIG. 11: Chemokine RANTES secretion (as measured by cytometric bead assay) from PBMC or macrophages stimulated with indicated compound for 48 h.
(§3) FIG. 12: IL12p70 secretion (as measured by cytometric bead assay) from PBMC or macrophages stimulated with indicated compound for 48 h.
(§4) FIG. 13: IL1b secretion (as measured by cytometric bead assay) from PBMC, macrophages or CD4 T cells stimulated with indicated compound for 48 h.
(§5) Study 10: PBMCs and macrophages where exposed to compounds 1 or 2 for 2 days (FIG. 11).
(§6) Study 11: PBMCs and macrophages where exposed to compounds 1 and 2 for 2 days.
(§7) Study 12: PBMCs, macrophages and CD4+ T cells where exposed to compounds 1 and 2 for 2 days.

CD4+ T cells = test: IL-1beta secretion from CD4+ T cells (cytometric bead assay); format: cell-based, Human; details: 2 days
Protocol: as §4, §7

[2] = tested on: E. coli, S. salivarius, L. casei, B. longum or M. luteus; test: Direct antibacterial activity, summary over all strains tested; format: cell-based; details: summary in words of Table 1
Protocol: as §1

[3] = tested on: Macrophages from healthy donors; test: Cytokine/chemokine secretion from macrophages (cytometric bead assay); format: cell-based, Human
Protocol: FIG. 10: Interferon-gamma secretion (as measured by cytometric bead assay) from macrophages stimulated with indicated compound for 48 h.
as §2, §3, §4
Study 9: Macrophages from healthy donors where exposed to compounds 1 or 2 for 48 hours. […] Compound 1 is therefore able to induce IFN-gamma secretion in macrophages from healthy donors.
as §5, §6, §7

[4] = tested on: peripheral blood mononuclear cells (PBMC); test: Marker expression on PBMC by flow cytometry; format: cell-based, Human; details: 24 h
Protocol: Human peripheral blood mononuclear cells (PBMCs) were purified from healthy donors with Ficoll-Paque density centrifugation. Cells were cultured in complete RPMI-1640 media (Invitrogen) supplemented with 25 mM HEPES, L-glutamine, Sodium pyruvate (Sigma), 10% fetal bovine serum, 100 μg/mL penicillin and 100 μg/mL streptomycin (Hyclone) for 24-72 hours in 37° C., 5% CO2 and stimulated with and increasing concentrations of compound 1 and 2. Cells were then washed in PBS and stained with monoclonal antibodies specific for cell surface markers (BD Pharmingen) and analysed with flow cytomtetry using a BD FACS Canto II flow cytometer. All samples were tested in duplicates.
Human peripheral blood mononuclear cells (PBMCs) were purified from healthy donors with Ficoll-Paque density centrifugation. Cells were cultured in complete RPMI-1640 medium (Invitrogen) supplemented with 25 mM HEPES, L-glutamine, Sodium pyruvate (Sigma), 10% fetal bovine serum, 100 μg/mL penicillin and 100 μg/mL streptomycin (Hyclone). Cells were stimulated for 24 h (study 1-4) or 48 h to 1 week (study 5) in 37° C., 5% CO2 with increasing concentrations of compound 1 and 2 in tissue culture plates. The cells were removed from the plate, washed in PBS and analysed for expression of cell specific surface markers and MHC class I with flow cytomtery using monoclonal antibodies from BD Pharmingen and a FACS Canto II flow cytometer.

[5] = tested on: PBMCs from CMV infected donors; test: IFN-gamma secretion from PBMCs of CMV infected donors with CMV antigen (cytometric bead assay); format: cell-based, Human; details: 3 days
Source text: FIG. 9: Interferon-gamma secretion (as measured by cytometric bead assay) from PBMCs (from a CMV+ donor) grown with CMV peptides in the presence or absence of compound 1 or A for 5 days.
Study 8: PBMCs from CMV infected donors cultured in the presence of CMV antigen where either untreated or exposed to compound 1 or compound 2 for 3 days.

PBMCs [6] = test: Supernatant IL-10 sandwich ELISA; format: cell-based, Human; details: […] with 100 U/mL IL-2, 48 h and 7 days
Protocol: Supernatant IL-10 was measured with a standard sandwich ELISA (all antibodies from BD Biosciences) after 48 hours and 7 days incubation with 2.5 μM of compound 1 and 100 U/mL IL-2 (Miltenyi Biotechnologies) in complete RPMI media, 37° C., 5% CO2
Supernatant IL-10 was measured with a standard sandwich ELISA (all antibodies from BD Biosciences) after 48 hours and 7 days incubation with 2.5 uM of compound 1 and 100 U/mL IL-2 (Miltenyi Biotechnologies) in complete RPMI media, 37° C., 5% CO2.
This indicate an immune inhibitory effect under certain conditions (FIG. 5).

Q: Which results are given for CC[C@H]1OC(=O)[C@H](C)[C@@H](O[C@H]2C[C@@H](N(C)C)[C@H](O)[C@@H](C)O2)[C@H](C)[C@@H](O)[C@](C)(O)C[C@@H](C)CN(C)[C@H](C)[C@@H](O)[C@]1(C)O [Compound 1]?
A: MIC (Lactobacillus casei): > 64 mg/L; CD25+ cell abundance (CD25+ cells): increased; IL-1beta secretion, PBMCs (PBMCs [1]): slightly; IL-12p70 secretion, PBMCs (PBMCs [1]): secreted IL-12p70; RANTES expression, PBMCs (PBMCs [1]): twofold upregulation; IL-1beta secretion, CD4+ T cells (CD4+ T cells): no IL-1beta was induced; antibacterial activity against the bacterial strains tested [2]: no antibacterial activity; IL-1beta secretion, macrophages ([3]; 2 days): increased; IL-12p70 secretion, macrophages ([3]; 2 days): secreted IL-12p70; RANTES expression, macrophages ([3]; 2 days): high expression; IFN-gamma secretion, macrophages ([3]; 48 hours): secreted IFN-gamma; activation marker CD69 on CD4+ T cells and B cells ([4]; 1 μM): upregulated; MHC class I (HLA-ABC) on T- and B-cells [4]: upregulation; MHC class II (HLA-DR) on monocytes [4]: upregulation; co-stimulatory molecule CD80 on monocytes [4]: upregulation; IFN-gamma secretion, PBMCs with CMV antigen [5]: induced secretion of high levels; production of IL-10 (PBMCs [6]): increased production
